Values of other authors in patent publication EP4516295A1, “PH-INDUCIBLE STRUCTURE-SWITCHING LIPID NANOVECTORS, SEMI-SYNTHETIC EXTRACELLULAR VESICLES, METHODS OF MAKING SAME AND USES THEREOF” (ETH Zurich, priority 2023, dated 2025).

Conditions: apparent acid dissociation constant prior to incorporation in LNVs

Compound	pKa
CCCCCCCCC(CCCCCC)C(=O)OCCCCCCN(CCCCO)CCCCCCOC(=O)C(CCCCCC)CCCCCCCC (stereo not drawn) [ALC-0315]	6.09
CCCC/C=C\C/C=C\CCCCCCCCCC1(CCCCCCCC/C=C\C/C=C\CCCCC)OCC(CN(C)C)O1 [D-Lin-K-DMA, N,N-dimethyl-1-(2-((10Z,13Z)-octadeca-10,13-dien-1-yl)-2-((9Z,12Z)-octadeca-9,12-dien-1-yl)-1,3-dioxolan-4 yl)methanamine]	5.9
CCCCC/C=C\C/C=C\CCCCCCCCOCC(CN(C)C)OCCCCCCCC/C=C\C/C=C\CCCCC (stereo not drawn) [DLin-DMA, 1,2-dilinoleyloxy-N,N-dimethyl-3-aminopropane]	6.8
CCCC/C=C\C/C=C\CCCCCCCCCC1(CCCCCCCC/C=C\C/C=C\CCCCC)OCC(CCN(C)C)O1 (stereo not drawn) [DLin-KC2-DMA, N,N-dimethyl-2-(2-((10Z,13Z)-octadeca-10,13-dien-1-yl)-2-((9Z,12Z)-octadeca-9,12-dien-1-yl)-1,3-dioxolan-4-yl)ethan-1-amine]	6.68
CCCC/C=C\C/C=C\CCCCCCCCCC1(CCCCCCCC/C=C\C/C=C\CCCCC)OCC(CCCN(C)C)O1 (stereo not drawn) [DLin-KC3-DMA, N,N-dimethyl-3-(2-((10Z,13Z)-octadeca-10,13-dien-1-yl)-2-((9Z,12Z)-octadeca-9,12-dien-1-yl)-1,3-dioxolan-4-yl)propan-1-amine]	7.2
CCCC/C=C\C/C=C\CCCCCCCCCC1(CCCCCCCC/C=C\C/C=C\CCCCC)OCC(CCCCN(C)C)O1 (stereo not drawn) [DLin-KC4-DMA, N,N-dimethyl-4-(2-((10Z,13Z)-octadeca-10,13-dien-1-yl)-2-((9Z,12Z)-octadeca-9,12-dien-1-yl)-1,3-dioxolan-4-yl)butan-1-amine]	7.3
CCCCC/C=C\C/C=C\CCCCCCCCC(CCCCCCCC/C=C\C/C=C\CCCCC)OC(=O)CCCN(C)C [DLin-MC3-DMA, 4-(dimethylamino)-butanoic acid, (10Z,13Z)-1-(9Z,12Z)-9,12-octadecadien-1-yl-10,13-nonadecadien-1-yl ester]	6.44
CCCCCC/C=C\COC(=O)CCCCCCCC(CCCCCCCC(=O)OC/C=C\CCCCCC)OC(=O)CCCN(C)C [L319]	6.38
CCCCCCCCCCCOC(=O)CCCCCN(CCO)CCCCCCCC(=O)OC(CCCCCCCC)CCCCCCCC [SM-102]	6.68
